According to ChEMBL document CHEMBL1134888, “Preliminary structure-antiangiogenic activity relationships of 4-senecioyloxymethyl-6,7-dimethoxycoumarin” (Bioorg Med Chem Lett, 2002):
Values after ≈ are worked out from the molar mass of the structure shown.

What was measured:
HUVEC (Homo sapiens) [1] = assay: Inhibitory percentage in HUVEC tube formation assay at a concentration of 3 ug/mL (toxic)
B16 [2] = assay: In vitro inhibition of B16 (murine melanoma) tumor cell growth.; conditions: Mus musculus
HCT-116 [3] = assay: In vitro inhibition of HCT116 (human colon) tumor cell growth.; assay type: functional, cell-based
HUVEC (Homo sapiens) [4] = assay: Inhibitory percentage in HUVEC tube formation assay at a concentration of 3 ug/mL; Inactive
HUVEC (Homo sapiens) [5] = assay: Inhibitory percentage in HUVEC tube formation assay at a concentration of 1 ug/mL (toxic)
HCT-116 [6] = assay: Concentration required for 50% reduction in HCT116 tumor cell growth (Human colon) was measured; NA denotes […]; assay type: functional, cell-based
B16 [7] = assay: Concentration required for 50% reduction in B16 tumor cell growth (murine melanoma) was measured; NA denotes […]

| Structure (SMILES) | IC50 (B16 [2]) [µg/mL] | IC50 (HCT-116 [3]) [µg/mL] | further results |
| --- | --- | --- | --- |
| COc1ccc(/C=C/C(=O)OCc2cc(=O)oc3cc(OC)c(OC)cc23)cc1O | 3 (≈ 7.27 µM) | 3.41 (≈ 8.27 µM) | inhibition at 3 µg/mL (HUVEC (Homo sapiens) [1]): 35.5% |
| CC(C)=CC(=O)OCc1cc(=O)oc2cc3ccccc3cc12 | > 10 | > 10 |  |
| COc1cc2oc(=O)cc(COC(=O)/C=C/c3ccc(O)cc3)c2cc1OC | 4.15 (≈ 10.9 µM) | 5.21 (≈ 13.6 µM) |  |
| COc1cc2oc(=O)cc(COC(=O)/C=C/c3ccccc3)c2cc1OC | > 10 | > 10 |  |
| CC(C)=CC(=O)OCc1cc(=O)oc2ccc(Cl)cc12 | > 10 | > 10 |  |
| COc1cc2oc(=O)cc(COC(=O)/C=C/c3ccc(Cl)cc3)c2cc1OC | > 10 | > 10 |  |
| COc1ccc2c(COC(=O)C=C(C)C)cc(=O)oc2c1 | > 10 | > 10 | inhibition at 3 µg/mL (HUVEC (Homo sapiens) [4]): < 10% |
| COc1cc2oc(=O)cc(COC(=O)/C=C/c3cc(OC)c(OC)c(OC)c3)c2cc1OC | 6.74 (≈ 14.8 µM) | 8.31 (≈ 18.2 µM) |  |
| COc1ccc(/C=C/C(=O)OCc2cc(O)nc3cc(OC)c(OC)cc23)cc1 | > 10 | > 10 |  |
| COc1cc2oc(=O)cc(COC(=O)C=C(C)C)c2cc1OC | > 10 | > 10 |  |
| COc1ccc(/C=C/C(=O)OCc2cc(=O)oc3cc(OC)c(OC)cc23)cc1 | 0.96 (≈ 2.42 µM) | 1.02 (≈ 2.57 µM) | inhibition at 1 µg/mL (HUVEC (Homo sapiens) [5]): 100% |
| Br.COc1ccc(/C=C/C(=O)OCc2cc(=O)oc3cc(OC)c(OC)cc23)cn1 | 1.27 | 2.43 |  |
| CC(C)=CC(=O)OCc1cc(=O)oc2cc3c(cc12)OCO3 | > 10 | > 10 |  |
| COc1ccc2oc(=O)cc(COC(=O)C=C(C)C)c2c1 | > 10 | > 10 | inhibition at 3 µg/mL (HUVEC (Homo sapiens) [4]): < 10% |
| C=CC(=O)OCc1cc(=O)oc2cc(OC)c(OC)cc12 | > 10 | > 10 | inhibition at 3 µg/mL (HUVEC (Homo sapiens) [4]): < 10% |
| C/C=C/C(=O)OCc1cc(=O)oc2cc(OC)c(OC)cc12 | > 10 | > 10 | inhibition at 3 µg/mL (HUVEC (Homo sapiens) [4]): < 10% |
| COc1cccc2c1C(=O)c1c(O)c3c(c(O)c1C2=O)C[C@@](O)(C(=O)CO)C[C@@H]3O[C@H]1C[C@H](N)[C@H](O)[C@H](C)O1 [DOXORUBICIN] | 0.09 (≈ 0.166 µM) | 0.11 (≈ 0.202 µM) |  |
| Cc1ccc(C(=O)Nc2ccc(S(=O)(=O)O)c3cc(S(=O)(=O)O)cc(S(=O)(=O)O)c23)cc1NC(=O)c1cccc(NC(=O)Nc2cccc(C(=O)Nc3cc(C(=O)Nc4ccc(S(=O)(=O)O)c5cc(S(=O)(=O)O)cc(S(=O)(=O)O)c45)ccc3C)c2)c1 [SURAMIN] |  |  | IC50 (HCT-116 [6]): Not Active; IC50 (B16 [7]): Not Active |
| COc1cc2oc(=O)cc(COC(=O)/C=C/c3ccc(N)cc3)c2cc1OC | > 10 | > 10 |  |
| COc1cc2oc(=O)cc(COC(=O)/C=C/c3ccc(OCCN(C)C)cc3)c2cc1OC.Cl | > 10 | > 10 |  |
